Molecular target: T1, GLP-1 Receptor (Homo sapiens, UniProt P43220)
T1 construct: host or cells: HEK293/CRE-Luc
Assay: GLP-1R agonist cAMP stimulation assay
Format: cell-based
Conditions: HEK293/CRE-Luc cell line stably expressing the GLP-1 Receptor; 30 min at 37° C.; cAMP dynamic 2 Kit
Experimental: Activation of GLP-1 receptor is known to stimulate cyclic AMP (cAMP) production in cells which indicates primary coupling to the Gas subunit of the G protein heterotrimeric complex.
To optimize functional activity directed toward Gas coupling, a HEK293/CRE-Luc cell line developed by HDB stably expressing the GLP-1 Receptor was used. 200× concentration of compound working solutions were prepared (Agilent Technologies Bravo) with ½ log serial dilution in 384-well Echo LDV plate (Labcyte, Cat #LP-0200). 50 nL/well 200× concentration of compound working solutions were moved to 384-well white low volume plate (Greiner, Cat #784075) using Labcyte ECHO550. 1×10^5 cells/mL HEK293/GLPlR/CRE-LUC (HD Biosciences) cell suspensions prepared with assay buffer [DPBS containing 0.5 mM IBMX (Sigma, Cat #15879) and 0.1% BSA (GENVIEW, Cat #FA016-100g)], 10 μL cell suspensions were added to each well of previous generated assay plate which already contains 50 nL compound at 200× concentration using ThermoFisher Multidrop Combi (1000 cells/well). Seal the plate and incubate at 37° C. with 5% CO2 for 30 min.
After incubation the cAMP assay signal was generated using cAMP dynamic 2 Kit (Cisbio). 5 μL cAMP-d2 working solution was added to each well, followed with 5 μL Anti-cAMP antibody-cryptate working solution added to each well using ThermoFisher Multidrop Combi. Incubate at room temperature for 1 hour protected from light. Read the fluorescence at 665 and 615 nm with Reader PerkinElmer EnVision.
% Activity=100%×(mean RLU of test sample mean RLU of vehicle control)/(mean RLU of MAX control−mean RLU of vehicle control))

T1 sequence (P43220 24-463): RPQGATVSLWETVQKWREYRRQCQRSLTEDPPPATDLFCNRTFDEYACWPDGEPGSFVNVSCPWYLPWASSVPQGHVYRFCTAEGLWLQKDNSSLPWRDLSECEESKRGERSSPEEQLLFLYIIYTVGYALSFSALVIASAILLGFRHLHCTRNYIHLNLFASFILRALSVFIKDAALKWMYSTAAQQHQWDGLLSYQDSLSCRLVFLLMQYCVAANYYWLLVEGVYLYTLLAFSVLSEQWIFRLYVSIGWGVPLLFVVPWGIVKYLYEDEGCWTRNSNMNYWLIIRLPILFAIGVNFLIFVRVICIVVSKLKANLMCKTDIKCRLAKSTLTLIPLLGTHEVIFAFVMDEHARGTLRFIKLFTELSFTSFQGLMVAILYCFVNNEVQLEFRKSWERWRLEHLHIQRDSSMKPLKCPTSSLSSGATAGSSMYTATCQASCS

| EC50 [nM] | SMILES |
| --- | --- |
| < 1 | Cc1ccc(C2(C)Oc3cccc(C4CCN(Cc5ncc(-c6nnc(C(F)(F)F)[nH]6)cc5CC5(C#N)CC5)CC4)c3O2)cn1 (stereo not drawn) [Example 11, 1-{[2-({4-[2-Methyl-2-(6-methylpyridin-3-yl)-2H-1,3-benzodioxol-4-yl]piperidin-1-yl}methyl)-5-[5-(trifluoromethyl)-4H-1,2,4-triazol-3-yl]pyridin-3-yl]methyl}cyclopropane-1-carbonitrile] |
| < 1 | CC1(c2ccc(Cl)cc2F)Oc2cc(F)cc(C3CCN(Cc4ncc(-c5nnc(C(F)(F)F)[nH]5)cc4CC4(C#N)CC4)CC3)c2O1 (single isomer, unassigned) [Example 14, 1-{[2-({4-[2-(4-chloro-2-fluorophenyl)-6-fluoro-2-methyl-2H-1,3-benzodioxol-4-yl]piperidin-1-yl}methyl)-5-[5-(trifluoromethyl)-4H-1,2,4-triazol-3-yl]pyridin-3-yl]methyl}cyclopropane-1-carbonitrile] |
| < 1 | N#CC1(Cc2cc(-c3nnc(C(F)(F)F)[nH]3)cnc2CN2CCC(c3ccc(F)c(OCc4ccc(Cl)c5ccoc45)n3)CC2)CC1 [Example 63, 1-((2-((4-(6-((4-chlorobenzofuran-7-yl)methoxy)-5-fluoropyridin-2-yl)piperidin-1-yl)methyl)-5-(5-(trifluoromethyl)-4H-1,2,4-triazol-3-yl)pyridin-3-yl)methyl)cyclopropane-1-carbonitrile] |
| < 1 | CC1(c2ccc(F)cc2F)Oc2cccc(C3CCN(Cc4ncc(-c5nnc(C(F)(F)F)[nH]5)cc4CC4(C#N)CC4)CC3)c2O1 (stereo not drawn) [Example 5, 1-{[2-({4-[2-(2,4-difluorophenyl)-2-methyl-2H-1,3-benzodioxol-4-yl]piperidin-1-yl}methyl)-5-[5-(trifluoromethyl)-4H-1,2,4-triazol-3-yl]pyridin-3-yl]methyl}cyclopropane-1-carbonitrile] |
| < 1 | CC1(c2ccc(C(F)(F)F)cc2Cl)Oc2cccc(C3CCN(Cc4ncc(-c5nnc(C(F)(F)F)[nH]5)cc4CC4(C#N)CC4)CC3)c2O1 (stereo not drawn) [Example 9, 1-((2-((4-(2-(2-Chloro-4-(trifluoromethyl)phenyl)-2-methylbenzo[d][1,3]dioxol-4-yl)piperidin-1-yl)methyl)-5-(5-(trifluoromethyl)-4H-1,2,4-triazol-3-yl)pyridin-3-yl)methyl)cyclopropane-1-carbonitrile] |
| < 1 | C[C@]1(c2ccc(Cl)cc2F)Oc2cccc(C3CCN(Cc4ncc(-c5nnc(C(F)(F)F)[nH]5)cc4CS(C)(=O)=O)CC3)c2O1 [Example 55, 2-({4-[(2S)-2-(4-chloro-2-fluorophenyl)-2-methyl-2H-1,3-benzodioxol-4-yl]piperidin-1-yl}methyl)-3-(methanesulfonylmethyl)-5-[5-(trifluoromethyl)-4H-1,2,4-triazol-3-yl]pyridine] |
| < 1 | Cc1ccc(C2(C)Oc3cccc(C4CCN(Cc5ncc(-c6nnc(C(F)(F)F)[nH]6)cc5CC5(C#N)CC5)CC4)c3O2)c(Cl)c1 (stereo not drawn) [Example 6, 1-((2-((4-(2-(2-Chloro-4-methylphenyl)-2-methylbenzo[d][1,3]dioxol-4-yl)piperidin-1-yl)methyl)-5-(5-(trifluoromethyl)-4H-1,2,4-triazol-3-yl)pyridin-3-yl)methyl)cyclopropane-1-carbonitrile] |

Further lines, the compound ahead of its results:

| SMILES | EC50 [nM] |
| --- | --- |
| N#CC1(Cc2cc(-c3nnc(C(F)(F)F)[nH]3)cnc2CN2CCC(c3cccc4c3OC[C@@H](c3ccc(Cl)cc3)O4)CC2)CC1 [Example 39, 1-{[2-({4-[(2R)-2-(4-chlorophenyl)-2,3-dihydro-1,4-benzodioxin-5-yl]piperidin-1-yl}methyl)-5-[5-(trifluoromethyl)-4H-1,2,4-triazol-3-yl]pyridin-3-yl]methyl}cyclopropane-1-carbonitrile] | 1 to 100 |
| N#CC1(Cc2cc(-c3nnc(C(F)(F)F)[nH]3)cnc2CN2CCN(c3ccnc(OCc4ccc(Cl)cc4F)n3)CC2)CC1 [Example 83] | 1 to 100 |
| C[C@]1(c2ccc(Cl)cc2F)Oc2cccc(C3CCN(Cc4ncc(C(=O)O)cc4CC4(C#N)CC4)CC3)c2O1 [Example 19, (S)-6-((4-(2-(4-chloro-2-fluorophenyl)-2-methylbenzo[d][1,3]dioxol-4-yl)piperidin-1-yl)methyl)-5-((1-cyanocyclopropyl)methyl)nicotinic acid] | 1 to 100 |
| CC1(c2ccc(Cl)cc2F)Oc2cc(F)cc(C3CCN(Cc4ncc(-c5nnc(C(F)(F)F)[nH]5)cc4CC4(C#N)CC4)CC3)c2O1 (single isomer, unassigned) [Example 13, 1-{[2-({4-[2-(4-chloro-2-fluorophenyl)-6-fluoro-2-methyl-2H-1,3-benzodioxol-4-yl]piperidin-1-yl}methyl)-5-[5-(trifluoromethyl)-4H-1,2,4-triazol-3-yl]pyridin-3-yl]methyl}cyclopropane-1-carbonitrile] | < 1 |
| N#CC1(Cc2cc(-c3nnc(C(F)(F)F)[nH]3)cnc2CN2CCC(c3ccc(F)c(OCc4ccc(Cl)cc4F)n3)CC2)CC1 [Example 33, 1-((2-((4-(6-((4-chloro-2-fluorobenzyl)oxy)-5-fluoropyridin-2-yl)piperidin-1-yl)methyl)-5-(5-(trifluoromethyl)-4H-1,2,4-triazol-3-yl)pyridin-3-yl)methyl)cyclopropane-1-carbonitrile] | < 1 |
| Cc1cc(-c2cnn(C)c2)cnc1CN1CCC(c2cccc(OCc3ccc(Cl)cc3F)n2)CC1 [Example 99] | > 100 |
| CC1(c2ccc(C(F)(F)F)cc2F)Oc2cccc(C3CCN(Cc4ncc(-c5nnc(C(F)(F)F)[nH]5)cc4CC4(C#N)CC4)CC3)c2O1 (stereo not drawn) [Example 8, 1-((2-((4-(2-(2-fluoro-4-(trifluoromethyl)phenyl)-2-methylbenzo[d][1,3]dioxol-4-yl)piperidin-1-yl)methyl)-5-(5-(trifluoromethyl)-4H-1,2,4-triazol-3-yl)pyridin-3-yl)methyl)cyclopropane-1-carbonitrile] | < 1 |
| C[C@]1(c2ccc(Cl)cn2)Oc2cccc(C3CCN(Cc4ncc(-c5nnn[nH]5)cc4CC4(C#N)CC4)CC3)c2O1 [Example 75] | < 1 |
| C[C@]1(c2ccc(Cl)cn2)Oc2cccc(C3CCN(Cc4ncc(-c5nnc(C(F)(F)F)[nH]5)cc4CC4(C#N)CC4)CC3F)c2O1 (single isomer, unassigned) [Example 26] | < 1 |
| N#CC1(Cc2cc(-c3nnc(C(F)(F)F)[nH]3)cnc2CN2CCC(c3cccc(OCc4ccc(Cl)c5ccoc45)n3)CC2)CC1 [Example 64, 1-((2-((4-(6-((4-chlorobenzofuran-7-yl)methoxy)pyridin-2-yl)piperidin-1-yl)methyl)-5-(5-(trifluoromethyl)-4H-1,2,4-triazol-3-yl)pyridin-3-yl)methyl)cyclopropane-1-carbonitrile] | < 1 |
| CN(C)C(=O)Cc1cc(-c2nnc(C(F)(F)F)[nH]2)cnc1CN1CCC(c2cccc3c2O[C@@](C)(c2ccc(Cl)cc2F)O3)CC1 [Example 56, (S)-2-(2-((4-(2-(4-chloro-2-fluorophenyl)-2-methylbenzo[d][1,3]dioxol-4-yl)piperidin-1-yl)methyl)-5-(5-(trifluoromethyl)-4H-1,2,4-triazol-3-yl)pyridin-3-yl)-N,N-dimethylacetamide] | 1 to 100 |
| Cc1cc(-c2nnc(C(F)(F)F)[nH]2)nnc1CN1CCC(c2cccc3c2O[C@@](C)(c2ccc(Cl)cc2F)O3)CC1 [Example 49, (S)-3-((4-(2-(4-chloro-2-fluorophenyl)-2-methylbenzo[d][1,3]dioxol-4-yl)piperidin-1-yl)methyl)-4-methyl-6-(5-(trifluoromethyl)-4H-1,2,4-triazol-3-yl)pyridazine] | 1 to 100 |
| N#CC1(Cc2cc(-c3noc(=O)[nH]3)cnc2CN2CCC(c3cccc(OCc4ccc(Cl)cc4F)n3)CC2)CC1 [Example 82] | 1 to 100 |
| Cc1cc(-c2noc(=O)[nH]2)cnc1CN1CCC(c2cccc(OCc3ccc(Cl)cc3F)n2)CC1 [Example 95] | > 100 |
| N#CC1(Cc2cc(-c3nnc(C(F)(F)F)[nH]3)cnc2CN2CC=C(c3ccc(F)c(OCc4ccc(Cl)cc4F)c3)CC2)CC1 [Example 48, 1-({2-[(4-{3-[(4-chloro-2-fluorophenyl)methoxy]-4-fluorophenyl}-1,2,3,6-tetrahydropyridin-1-yl)methyl]-5-[5-(trifluoromethyl)-4H-1,2,4-triazol-3-yl]pyridin-3-yl}methyl)cyclopropane-1-carbonitrile] | 1 to 100 |
| C[C@]1(c2ccc(Cl)cc2F)Oc2cccc(C3CCN(Cc4ncc(-c5noc(=O)[nH]5)cc4CS(C)(=O)=O)CC3)c2O1 [Example 58, 3-[6-({4-[(2S)-2-(4-chloro-2-fluorophenyl)-2-methyl-2H-1,3-benzodioxol-4-yl]piperidin-1-yl}methyl)-5-(methanesulfonylmethyl)pyridin-3-yl]-2,5-dihydro-1,2,4-oxadiazol-5-one] | < 1 |
| Cc1nc(-c2nnc(C(F)(F)F)[nH]2)cnc1CN1CCC(c2cccc3c2O[C@@](C)(c2ccc(Cl)cc2F)O3)CC1 [Example 52, 2-({4-[(2S)-2-(4-chloro-2-fluorophenyl)-2-methyl-1,3-benzodioxol-4-yl]piperidin-1-yl}methyl)-3-methyl-5-[5-(trifluoromethyl)-4H-1,2,4-triazol-3-yl]pyrazine] | 1 to 100 |
